Data on 23 molecules can be found in patent US20260207618A1, “PYRIMIDINE CARBOXAMIDE COMPOUNDS” (Acrivon Therapeutics, Inc., priority 2022, published 2026).

Assay [1] deals with T1, recombinant human Wee1A kinase (Homo sapiens, UniProt P30291).
T1 construct: full length Wee1A kinase was expressed by baculovirus in insect cells; purchased Invitrogen PV3817; host or cells: insect cells (baculovirus)
The assay can be described thus: LanthaScreen Europium (Eu) Kinase Binding Assay, Wee1A kinase (TR-FRET tracer displacement). The note with it: 30 nM tracer 178, 5 nM Wee1A kinase, 60 minutes at room temperature. The text has this: We used a LanthaScreen Europium (Eu) Kinase Binding Assay to determine the binding of provided compounds to Wee1A kinase. The assay utilizes an Alexa Fluor 647-labeled ATP competitive kinase tracer that binds to the ATP binding site of a GST-tagged Wee1A kinase, while a europium (Eu) labeled antibody binds to the GST tag. The proximity of fluorescently labeled kinase tracer and europium (Eu) donor fluorophore antibody leads to fluorescence resonance energy transfer (FRET) to the fluorescence label (acceptor) upon excitation of the Eu (donor). Displacement of tracer from the ATP-binding site by a test compound disturbs the proximity between both labels thus lowering the FRET.
This time resolved-FRET binding assay was performed in white 384-well low volume plates (Greiner, cat #784075), at room temperature in kinase buffer A (KBA; Invitrogen cat #PV3189), consisting of 50 mM HEPES-NaOH (pH 7.5), 0.01% Brij-35, 10 mM MgCl2, and 1 mM EGTA. 5 μl of compound (diluted in reaction buffer, to 1% DMSO) were added to various wells in the plate, followed by 5 μl each of recombinant human Wee1A kinase (full length Wee1A kinase was expressed by baculovirus in insect cells using a N-terminal GST tag (MW: 99.1 kDa) (Invitrogen cat #PV3817) and LanthaScreen Eu-anti-GST antibody (Invitrogen, cat #PV5594). After this, 5 μl of kinase tracer 178 (Invitrogen, cat #PV5593) was added to the plate and the plate was incubated for 60 minutes at room temperature. The final assay conditions in each well were: 30 nM tracer 178, 5 nM Wee1A kinase and 2 nM Eu-labeled antibody in total assay volume of 15 μl. An Envision 2104 (Perkin-Elmer) Plate Reader with the following time-resolve fluorescence setting was used for performing LanthaScreen kinase binding assay. • Excitation 320 nm (30 nm bandpass) • Kinase Tracer Emission 665 nm (10 nm bandpass) • LanthaScreen Eu-anti-Tag Antibody Emission 615 nm (10 nm bandpass) • Dichroic Mirror Instrument dependent • Delay Time 100 μs • Integration Time 200 μs
To calculate the emission ratio, the acceptor/tracer emission ([…]) was divided by the antibody/donor emission ([…]) and the average of duplicate measurement was used for calculations. Data plotting, analysis of binding, and curve fitting was done using Excel add-in XLfit version 5.5.0.5 (IDBS, Guildford, United Kingdom).
In general terms: Time-resolved FRET reads energy transfer from a long-lived donor to a nearby acceptor.

Assay [2] concerns Cdk1 phosphorylated on tyrosine 15. Description: High-content imaging of pCdk1 Y15 by immunofluorescence in ACHN cells. In kind it is cell-based. The note with it: Homo sapiens, high-content imaging (IF), 4 h, 7 to 5000 nM, read-out: CDK1 Tyr15 Phosphorylation EC50 (IC50). As to the method:
ACHN renal cell carcinoma cell line (ATCC) was cultured in Minimum Essential Medium Eagle supplemented with 10% fetal calf serum (Sigma), 1% Penicillin-Streptomycin and 10 mM HEPES buffer (HyClone). Cell cultures were kept in a humidified incubator at 37° C. and 5% CO2. Cells were routinely tested for Mycoplasma contamination.
High-content imaging of ACHN renal cell carcinoma cells was used for quantification of CDK1 phosphorylated on tyrosine 15 by immunofluorescence (“IF”). 20 000 cells per well were seeded in tissue culture treated 96 well plates and treated with compounds at concentrations ranging from 7 to 5000 nM for 4 h. Cells were fixated for 15 minutes in 4% paraformaldehyde solution, washed in PBS and permeabilized using 0.2% Triton X-100. Blocking was performed for 1 h at RT using Blocker FL Fluorescent Blocking Buffer (Thermo Scientific), thereafter cells were incubated with primary antibody (rabbit anti-pCDK1 Y^15, #4539, Cell Signaling Technology) at 4° C. ON. Alexa Fluor Plus 647 labelled goat anti-rabbit (A32733. Thermo Scientific) was used as secondary antibody. After washing in PBS, nuclei were stained with DAPI solution for 10 min at RT, protected from light. Cells were imaged using an ImageXpress Pico automated imaging system and CellReporter Xpress software (Molecular Devices). The percentage cells with nuclear positivity for pCdk1 Y^15 compared to DMSO control was determined for each well and drug dose response curves and EC50 values were calculated and visualized using GraphPad Prism.

pEC50, pIC50: −log10 of the molar value.

T1 sequence (P30291 whole entry): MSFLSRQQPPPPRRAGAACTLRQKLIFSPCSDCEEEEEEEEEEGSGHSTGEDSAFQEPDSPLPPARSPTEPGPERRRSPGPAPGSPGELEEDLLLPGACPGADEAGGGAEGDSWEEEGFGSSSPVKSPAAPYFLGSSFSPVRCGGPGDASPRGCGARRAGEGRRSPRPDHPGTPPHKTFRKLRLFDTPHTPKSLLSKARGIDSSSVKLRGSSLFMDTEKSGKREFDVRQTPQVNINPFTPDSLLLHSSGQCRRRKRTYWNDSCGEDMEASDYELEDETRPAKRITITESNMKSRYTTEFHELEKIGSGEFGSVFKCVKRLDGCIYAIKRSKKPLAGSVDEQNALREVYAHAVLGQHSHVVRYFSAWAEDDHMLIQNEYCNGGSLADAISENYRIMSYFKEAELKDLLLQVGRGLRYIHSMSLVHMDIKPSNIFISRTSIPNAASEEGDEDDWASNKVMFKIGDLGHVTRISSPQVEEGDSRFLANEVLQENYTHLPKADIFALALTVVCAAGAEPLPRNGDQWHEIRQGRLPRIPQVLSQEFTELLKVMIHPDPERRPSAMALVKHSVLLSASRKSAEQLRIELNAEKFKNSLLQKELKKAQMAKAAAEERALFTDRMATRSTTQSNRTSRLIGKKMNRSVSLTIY

What is called pIC50 is −log10 of the IC50, conventionally taken in molar units. One may read the pEC50 as the negative decadic logarithm of the EC50, by convention in mol/L. Consider `COc1nc(Nc2ccc(OC3CCN(C)CC3)c(C)c2)ncc1C(=O)Nc1c(Cl)ccc(O)c1C` [Compound 152, N-(6-chloro-3-hydroxy-2-methylphenyl)-4-methoxy-2-((3-methyl-4-((1-methylpiperidin-4-yl)oxy)phenyl)amino)pyrimidine-5-carboxamide], for which the pIC50 in assay [1] is at least 8.00. Moreover, the pEC50 in assay [2] was 6.30 to 7.00.

For the molecule `CCOc1nc(Nc2cnn([C@@H](C)CN(C)C)c2)ncc1C(=O)Nc1c(Cl)cccc1Br` [Compound 202, N-(2-bromo-6-chlorophenyl)-2-{1-[(S)-2-(dimethylamino)-1-methylethyl]-4-pyrazolylamino}-4-ethoxy-5-pyrimidinecarboxamide], in assay [1], the pIC50 is at least 8.00. The pEC50 in assay [2] was below 6.00.

Regarding `COc1nc(Nc2ccc3c(cnn3C3CCN(C)CC3)c2)ncc1C(=O)Nc1c(Cl)cccc1Cl` [Compound 166], in assay [1], the pIC50 was at least 8.00. Also, in assay [2], the pEC50 was 6.30 to 7.00.

Regarding `COc1nc(Nc2ccc(C3CCN(C)CC3)c(C)c2)ncc1C(=O)Nc1c(F)cccc1Cl` [Compound 113, N-(2-chloro-6-fluorophenyl)-4-methoxy-2-((3-methyl-4-(1-methylpiperidin-4-yl)phenyl)amino)pyrimidine-5-carboxamide], the pIC50 in assay [1] was at least 8.00. The pEC50 in assay [2] is 6.30 to 7.00.

Consider `CCOc1cc(Nc2ncc(C(=O)Nc3c(Cl)cccc3Br)c(OC)n2)ccc1C1CCN(C)CC1` [Compound 217, N-(2-bromo-6-chlorophenyl)-2-((3-ethoxy-4-(1-methylpiperidin-4-yl)phenyl)amino)-4-methoxypyrimidine-5-carboxamide], for which, in assay [1], the pIC50 is at least 8.00. In assay [2], the pEC50 is 6.30 to 7.00.

With `CCc1cccc(Cl)c1NC(=O)c1cnc(Nc2ccc(C3CCN(C)CC3)c(C)c2)nc1OC` [Compound 132, N-(2-chloro-6-ethylphenyl)-4-methoxy-2-((3-methyl-4-(1-methylpiperidin-4-yl)phenyl)amino)pyrimidine-5-carboxamide], the pIC50 in assay [1] is at least 8.00. Besides, the pEC50 in assay [2] is 6.30 to 7.00.

Consider `COc1nc(Nc2ccc(C3CCN(C)CC3)c(C)c2)ncc1C(=O)Nc1ccccc1Br` [Compound 107, N-(2-bromophenyl)-4-methoxy-2-((3-methyl-4-(1-methylpiperidin-4-yl)phenyl)amino)pyrimidine-5-carboxamide], for which the pIC50 in assay [1] was at least 8.00. Also, the pEC50 in assay [2] was below 6.00.

With `CCOc1nc(Nc2cnn([C@@H](C)CNC)c2)ncc1C(=O)Nc1c(Cl)cccc1Br` [Compound 201, N-(2-bromo-6-chlorophenyl)-2-{1-[(S)-1-methyl-2-(methylamino)ethyl]-4-pyrazolylamino}-4-ethoxy-5-pyrimidinecarboxamide], the negative logarithm of the IC50 (pIC50) in assay [1] is at least 8.00. Further, the pEC50 in assay [2] is below 6.00.

As for `COc1nc(Nc2ccc(N3CCNCCC3=O)c(C)c2)ncc1C(=O)Nc1c(Cl)cccc1Cl` [Compound 167], in assay [1], the negative-log IC50 (pIC50) is at least 8.00. Besides, the pEC50 in assay [2] was 6.30 to 7.00.

On to `COc1nc(Nc2ccc(N3CCN(C)CCC3=O)cc2)ncc1C(=O)Nc1c(Cl)cccc1Cl` [Compound 185, N-(2,6-dichlorophenyl)-4-methoxy-2-((4-(4-methyl-7-oxo-1,4-diazepan-1-yl)phenyl)amino)pyrimidine-5-carboxamide], for which the pIC50 in assay [1] is at least 8.00. Further, the pEC50 in assay [2] is 6.30 to 7.00.

For `COc1nc(Nc2ccc(C3CCN(C)CC3)c(C)c2)ncc1C(=O)Nc1ccccc1C(F)(F)F` [Compound 114, 4-methoxy-2-((3-methyl-4-(1-methylpiperidin-4-yl)phenyl)amino)-N-(2-(trifluoromethyl)phenyl)pyrimidine-5-carboxamide], the pIC50 in assay [1] was at least 8.00. Also, the pEC50 in assay [2] was below 6.00.

Regarding `COc1nc(Nc2ccc(C3CCN(C)CC3)c(C)c2)ncc1C(=O)Nc1c(Cl)cccc1C#N` [Compound 137, N-(2-chloro-6-cyanophenyl)-4-methoxy-2-((3-methyl-4-(1-methylpiperidin-4-yl)phenyl)amino)pyrimidine-5-carboxamide], in assay [1], the pIC50 was 7.00 to 8.00. Further, the pEC50 in assay [2] is below 6.00.

Consider `COc1nc(Nc2ccc(O[C@@H]3CCN(C)C3)c(C)c2)ncc1C(=O)Nc1c(Cl)ccc(O)c1C` [Compound 153, (R)—N-(6-chloro-3-hydroxy-2-methylphenyl)-4-methoxy-2-((3-methyl-4-((1-methylpyrrolidin-3-yl)oxy)phenyl)amino)pyrimidine-5-carboxamide], for which the pIC50 in assay [1] was at least 8.00. Also, the pEC50 in assay [2] was at least 7.00.

With `COc1nc(Nc2ccc(C3CCN(C)CC3)c(C)c2)ncc1C(=O)Nc1c(Cl)ccc(F)c1F` [Compound 125, N-(6-chloro-2,3-difluorophenyl)-4-methoxy-2-((3-methyl-4-(1-methylpiperidin-4-yl)phenyl)amino)pyrimidine-5-carboxamide], the pIC50 in assay [1] is at least 8.00. Moreover, the pEC50 in assay [2] was below 6.00.

As for `COc1nc(Nc2ccc(C3CCN(C)CC3)c(C)c2)ncc1C(=O)Nc1c(C)cccc1Br` [Compound 108, N-(2-bromo-6-methylphenyl)-4-methoxy-2-((3-methyl-4-(1-methylpiperidin-4-yl)phenyl)amino)pyrimidine-5-carboxamide], the pIC50 in assay [1] was at least 8.00. Moreover, the pEC50 in assay [2] is 6.30 to 7.00.

As to `COc1nc(Nc2ccc(OCCN(C)C)c(C)c2)ncc1C(=O)Nc1c(Cl)cccc1Cl` [Compound 143, N-(2,6-dichlorophenyl)-2-((4-(2-(dimethylamino)ethoxy)-3-methylphenyl)amino)-4-methoxypyrimidine-5-carboxamide], in assay [1], the pIC50 was at least 8.00. For the same molecule, in assay [2], the pEC50 is 6.30 to 7.00.

In the case of `CCOc1nc(Nc2cnn([C@H](C)CN(C)C)c2)ncc1C(=O)Nc1c(Cl)cccc1Br` [Compound 204], the pIC50 in assay [1] was at least 8.00. In assay [2], the pEC50 was below 6.00.

As to `CN1CCN(c2ccc(Nc3ncc(C(=O)Nc4c(Cl)cccc4Cl)c(OC4CC4)n3)cc2)CC1` [Compound 102, 4-cyclopropoxy-N-(2,6-dichlorophenyl)-2-((4-(4-methylpiperazin-1-yl)phenyl)amino)pyrimidine-5-carboxamide], in assay [1], the pIC50 was at least 8.00. The pEC50 in assay [2] is 6.30 to 7.00.

For `COc1nc(Nc2cc(C)c(N3CCC(N(C)C)CC3)c(F)c2)ncc1C(=O)Nc1c(Cl)cccc1Br` [Compound 214], the pIC50 in assay [1] was at least 8.00. Further, the pEC50 in assay [2] was 6.30 to 7.00.

With `COc1nc(Nc2ccc([C@@H]3CCCNC3)c(C)c2)ncc1C(=O)Nc1c(Cl)cccc1Br` [Compound 199, (S)—N-(2-bromo-6-chlorophenyl)-4-methoxy-2-((3-methyl-4-(piperidin-3-yl)phenyl)amino)pyrimidine-5-carboxamide], the pIC50 in assay [1] was at least 8.00. The pEC50 in assay [2] was 6.30 to 7.00.

On to `COc1nc(Nc2cnn(C)c2)ncc1C(=O)Nc1c(C)ccc(O)c1C` [Compound 224, N-(3-hydroxy-2,6-xylyl)-4-methoxy-2-(1-methyl-4-pyrazolylamino)-5-pyrimidinecarboxamide], for which, in assay [1], the pIC50 was at least 8.00. Further, the pEC50 in assay [2] was below 6.00.

For the molecule `COc1nc(Nc2ccc([C@@H]3CCN(C)C3)c(C)c2)ncc1C(=O)Nc1c(Cl)cccc1Br` [Compound 193], the pIC50 in assay [1] is at least 8.00. Moreover, the pEC50 in assay [2] is at least 7.00.

As for `COc1nc(Nc2ccc(N3CCN(C)CC3)cc2)ncc1C(=O)Nc1c(Cl)cccc1Cl` [Compound 111, N-(2,6-dichlorophenyl)-4-methoxy-2-((4-(4-methylpiperazin-1-yl)phenyl)amino)pyrimidine-5-carboxamide], the pIC50 in assay [1] was at least 8.00. For the same molecule, the pEC50 in assay [2] was 6.30 to 7.00.
